Results taken from US9029364B2, “2,5-disubstituted thiomorpholine orexin receptor antagonists” (Merck Sharp & Dohme Corp., priority 2011, dated 2015).

molecular target: human orexin-2 receptor (Homo sapiens (Human), UniProt O43614); experiment: radioligand binding assay, orexin-2 receptor (hOX2 Bind hKi); details: membranes from CHO cells expressing OX2 receptor
Experimental: In a typical experiment the OX1 and OX2 receptor antagonistic activity of the compounds of the present invention was determined in accordance with the following experimental method. For intracellular calcium measurements, Chinese hamster ovary (CHO) cells expressing the rat orexin-1 receptor or the human orexin-2 receptor, are grown in Iscove's modified DMEM containing 2 mM L-glutamine, […], 1% hypoxanthine-thymidine supplement, 100 U/ml penicillin, 100 μg/ml streptomycin and 10% heat-inactivated fetal calf serum (FCS). The cells are seeded at 20,000 cells/well into Becton-Dickinson black 384-well clear bottom sterile plates coated with poly-D-lysine. All reagents were from GIBCO-Invitrogen Corp. The seeded plates are incubated overnight at 37° C. and 5% CO2. Ala-6,12 human orexin-A as the agonist is prepared as a 1 mM stock solution in 1% bovine serum albumin (BSA) and diluted in assay buffer (HBSS containing 20 mM HEPES, 0.1% BSA and 2.5 mM probenecid, pH7.4) for use in the assay at a final concentration of 70 pM. Test compounds are prepared as 10 mM stock solution in DMSO, then diluted in 384-well plates, first in DMSO, then assay buffer. On the day of the assay, cells are washed 3 times with 100 μl assay buffer and then incubated for 60 min (37° C., 5% CO2) in 60 μl assay buffer containing 1 μM Fluo-4AM ester, 0.02% pluronic acid, and 1% BSA. The dye loading solution is then aspirated and cells are washed 3 times with 100 μl assay buffer. 30 μl of that same buffer is left in each well. Within the Fluorescent Imaging Plate Reader (FLIPR, Molecular Devices), test compounds are added to the plate in a volume of 25 μl, incubated for 5 min and finally 25 μl of agonist is added. Fluorescence is measured for each well at 1 second intervals for 5 minutes and the height of each fluorescence peak is compared to the height of the fluorescence peak induced by 70 pM Ala-6,12 orexin-A with buffer in place of antagonist. For each antagonist, IC50 value (the concentration of compound needed to inhibit 50% of the agonist response) is determined. Alternatively, compound potency can be assessed by a radioligand binding assay (described in Bergman et. al. Bioorg. Med. Chem. Lett. 2008, 18, 1425-1430) in which the inhibition constant (Ki) is determined in membranes prepared from CHO cells expressing either the OX1 or OX2 receptor. The intrinsic orexin receptor antagonist activity of a compound which may be used in the present invention may be determined by these assays.
The following tables show representative data for the compounds of the Examples as orexin receptor antagonists as determined by the foregoing assays wherein the hOX2 Ki is a measure of the ability of the test compound to inhibit the action of the human orexin-2 receptor and the hOX1R is a measure of the ability of the test compound to inhibit the action of the rat orexin-1 receptor.

Chain of human orexin-2 receptor (O43614 whole entry): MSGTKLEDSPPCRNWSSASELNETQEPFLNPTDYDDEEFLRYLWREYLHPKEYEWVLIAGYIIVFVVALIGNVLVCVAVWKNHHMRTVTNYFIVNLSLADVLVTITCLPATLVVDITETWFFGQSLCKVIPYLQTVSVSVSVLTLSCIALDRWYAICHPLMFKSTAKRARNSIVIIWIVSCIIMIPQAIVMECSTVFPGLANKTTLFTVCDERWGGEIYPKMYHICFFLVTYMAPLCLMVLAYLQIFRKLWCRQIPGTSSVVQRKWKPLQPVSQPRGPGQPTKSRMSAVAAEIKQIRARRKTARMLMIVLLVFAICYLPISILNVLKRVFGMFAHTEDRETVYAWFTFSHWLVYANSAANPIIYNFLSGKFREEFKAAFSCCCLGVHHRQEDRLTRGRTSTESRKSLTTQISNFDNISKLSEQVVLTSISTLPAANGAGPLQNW

| SMILES | Ki |
| --- | --- |
| Cc1ccc(-n2nccn2)c(C(=O)N2C[C@H](COc3ccc(F)cn3)SC[C@H]2C)c1 [Example 1, [(2R,5R)-2-{[(5-Fluoropyridin-2-yl)oxy]methyl}-5-methylthiomorpholin-4-yl][5-methyl-2-(2H-1,2,3-triazol-2-yl)phenyl]methanone] | 0.38 nM |
| C[C@@H]1CS[C@@H](COc2ccccn2)CN1C(=O)c1ccccc1-n1nccn1 [Example 2, (2R,5R)-5-methyl-2-[(pyridin-2-yloxy)methy1]-4-{[2-(2H-1,2,3-triazol-2-yl)phenyl]carbonyl} thiomorpholine] | 15.3 nM |
| C[C@@H]1CS[C@@H](COc2ccc(F)cn2)CN1C(=O)c1ccccc1-n1nccn1 [Example 3, (2R,5R)-2-{[(5-fluoropyridin-2-yl)oxy]methyl}-5-methy1-4-{[2-(2H-1,2,3-triazol-2-yl)phenyl]carbonyl} thiomorpholine] | 0.9 nM |
| Cc1ccc(OC[C@H]2CN(C(=O)c3ccccc3-n3nccn3)[C@H](C)CS2)nc1 [Example 4, (2R,5R)-5-methyl-2-{[(5-methylpyridin-2-yl)oxy]methyl}-4-{[2-(2H-1,2,3-triazol-2-yl)phenyl]carbonyl} thiomorpholine] | 9.7 nM |
| C[C@@H]1CS[C@@H](COc2ccc(Cl)cn2)CN1C(=O)c1ccccc1-n1nccn1 [Example 5, (2R,5R)-2-{[(5-chloropyridin-2-yl)oxy]methyl}-5-methyl-4-{[2-(2H-1,2,3-triazol-2-yl)phenyl]carbonyl} thiomorpholine] | 1.7 nM |
| C[C@@H]1CS[C@@H](COc2ccc(C#N)cn2)CN1C(=O)c1ccccc1-n1nccn1 [Example 6, 6-{[(2R,5R)-5-methy1-4-{[2-(2H-1,2,3-triazol-2-yl)phenyl]carbonyl}thiomorpholin-2-yl]methoxy}pyridine-3-carbonitrile] | 47 nM |
| C[C@@H]1CS[C@@H](COc2ccc(C(F)(F)F)cn2)CN1C(=O)c1ccccc1-n1nccn1 [Example 7, (2R,5R)-5-methyl-4-{[2-(2H-1,2,3-triazol-2-yl)phenyl]carbonyl}-2-({[5-(trifluoromethyl)pyridin-2-yl]oxy}methyl)thiomorpholine] | 66 nM |
| C[C@@H]1CS[C@@H](COc2ncccc2Cl)CN1C(=O)c1ccccc1-n1nccn1 [Example 8, (2R,5R)-2-{[(3-chloropyridin-2-yl)oxy]methyl}-5-methyl-4-{[2-(2H-1,2,3-triazol-2-yl)phenyl]carbonyl} thiomorpholine] | 2.5 nM |
| C[C@@H]1CS[C@@H](COc2ncccc2C#N)CN1C(=O)c1ccccc1-n1nccn1 [Example 9, 2-{[(2R,5R)-5-methy1-4-{[2-(2H-1,2,3-triazol-2-yl)phenyl]carbonyl}thiomorpholin-2-yl]methoxy}pyridine-3-carbonitrile] | 150 nM |
| Cc1ccnc(OC[C@H]2CN(C(=O)c3ccccc3-n3nccn3)[C@H](C)CS2)c1 [Example 10, (2R,5R)-5-methyl-2-{[(4-methylpyridin-2-yl)oxy]methyl}-4-{[2-(2H-1,2,3-triazol-2-yl)phenyl]carbonyl} thiomorpholine] | 192 nM |
| C[C@@H]1CS[C@@H](COc2ncccn2)CN1C(=O)c1ccccc1-n1nccn1 [Example 11, (2R,5R)-5-methyl-2-[(pyrimidin-2-yloxy)methy1]-4-{[2-(2H-1,2,3-triazol-2-yl)phenyl]carbonyl} thiomorpholine] | > 4650 nM |
| Cc1nc(OC[C@H]2CN(C(=O)c3ccccc3-n3nccn3)[C@H](C)CS2)ncc1Cl [Example 12, (2R,5R)-2-{[(5-chloro-4-methylpyrimidin-2-yl)oxy]methyl}-5-methyl-4-{[2-(2H-1,2,3-triazol-2-yl)phenyl]carbonyl} thiomorpholine] | 32 nM |
| Cc1cnc(OC[C@H]2CN(C(=O)c3ccccc3-n3nccn3)[C@H](C)CS2)nc1Cl [Example 13, (2R,5R)-2-{[(4-chloro-5-methylpyrimidin-2-yl)oxy]methyl}-5-methyl-4-{[2-(2H-1,2,3-triazol-2-yl)phenyl]carbonyl} thiomorpholine] | 7.4 nM |
| COc1cnc(OC[C@H]2CN(C(=O)c3ccccc3-n3nccn3)[C@H](C)CS2)nc1Cl [Example 14, (2R,5R)-2-{[(4-chloro-5-methoxypyrimidin-2-yl)oxy]methyl}-5-methyl-4-{[2-(2H-1,2,3-triazol-2-yl)phenyl]carbonyl} thiomorpholine] | 155 nM |
| C[C@@H]1C[S+]([O-])[C@@H](COc2ccc(F)cn2)CN1C(=O)c1ccccc1-n1nccn1 (stereo partly drawn) [Example 15, [(2R,5R)-2-{[(5-Fluoropyridin-2-yl)oxy]methyl}-5-methyl-1-oxidothiomorpholin-4-yl][2-(2H-1,2,3-triazol-2-yl)phenyl]methanone] | 170 nM |
| C[C@@H]1CS[C@@H](CSc2ccccn2)CN1C(=O)c1ccccc1-n1nccn1 [Example 17, {(2R,5R)-5-Methyl-2-[(pyridine-2-ylsulfanyl)methyl]thiomorpholin-4-yl}[2-(2H-1,2,3-triazol-2-yl)phenyl]methanone] | 98 nM |
